Paper doi:10.1101/2021.12.18.473277v2 (biorxiv, 2022)

Assays:
[1] = target: HDAC3 (with DAD of NCoR2) (Homo sapiens, UniProt O15379); experiment: fluorogenic activity assay with added InsP6; type: biochemical; settings: activator; stabilises the HDAC3/NCoR2 DAD complex
HDAC1 = HDAC1 (Homo sapiens, UniProt Q13547); experiment: continuous fluorogenic AMC assay, progression curves, kobs fit; type: biochemical
HDAC1, sequence (Q13547 whole entry): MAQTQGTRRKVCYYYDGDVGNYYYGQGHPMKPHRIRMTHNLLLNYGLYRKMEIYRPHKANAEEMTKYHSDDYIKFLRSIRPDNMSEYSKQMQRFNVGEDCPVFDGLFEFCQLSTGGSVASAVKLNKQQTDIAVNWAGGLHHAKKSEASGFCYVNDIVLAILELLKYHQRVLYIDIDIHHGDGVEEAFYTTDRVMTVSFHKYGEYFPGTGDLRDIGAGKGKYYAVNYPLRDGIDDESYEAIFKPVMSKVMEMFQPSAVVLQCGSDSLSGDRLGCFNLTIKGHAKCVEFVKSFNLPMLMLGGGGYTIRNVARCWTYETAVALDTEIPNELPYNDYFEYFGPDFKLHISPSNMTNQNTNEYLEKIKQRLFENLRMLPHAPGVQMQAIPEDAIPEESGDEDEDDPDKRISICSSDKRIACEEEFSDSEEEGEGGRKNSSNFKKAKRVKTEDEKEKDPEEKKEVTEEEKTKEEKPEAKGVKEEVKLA

HDAC3 (with DAD of NCoR2), sequence (O15379 whole entry): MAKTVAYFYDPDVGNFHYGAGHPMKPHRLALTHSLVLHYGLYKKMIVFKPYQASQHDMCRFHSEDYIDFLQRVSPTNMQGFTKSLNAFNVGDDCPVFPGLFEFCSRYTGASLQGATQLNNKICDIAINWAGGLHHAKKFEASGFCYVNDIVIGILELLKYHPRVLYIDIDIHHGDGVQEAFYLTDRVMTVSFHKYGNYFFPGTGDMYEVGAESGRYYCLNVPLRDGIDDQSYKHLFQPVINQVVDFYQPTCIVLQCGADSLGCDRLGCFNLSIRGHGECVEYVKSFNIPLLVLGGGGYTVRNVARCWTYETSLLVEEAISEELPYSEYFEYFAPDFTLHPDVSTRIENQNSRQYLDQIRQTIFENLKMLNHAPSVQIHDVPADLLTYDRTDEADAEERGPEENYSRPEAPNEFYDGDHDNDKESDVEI
HDAC3 (with DAD of NCoR2), sequence (Q9Y618 395-489 partner limits assumed): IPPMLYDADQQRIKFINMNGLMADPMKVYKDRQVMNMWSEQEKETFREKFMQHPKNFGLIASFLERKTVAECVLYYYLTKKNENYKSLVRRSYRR

| fluorogenic activity assay with added InsP6 [1] | Ki (HDAC1) | Structure (SMILES) |
| --- | --- | --- |
| Addition of InsP6 enhanced HDAC activity | – | O=P(O)(O)O[C@H]1[C@H](OP(=O)(O)O)[C@@H](OP(=O)(O)O)[C@H](OP(=O)(O)O)[C@@H](OP(=O)(O)O)[C@H]1OP(=O)(O)O [inositol hexaphosphate] |
| – | ~40 nM | CCCNNC(=O)c1ccc(CNC(=O)/C=C/c2ccccc2)cc1 [compound 5] |
